Measured values published in publication PMC5035920, “Exploring functional roles of TRPV1 intracellular domains with unstructured peptide-insertion screening” (Scientific Reports, 2016).

Experiments:
mTRPV1 (mouse TRPV1) [1] = target: T1, mTRPV1 (mouse TRPV1) (Mus musculus, UniProt Q704Y3, INS430GGG); assay: patch-clamp of transfected HEK293 cells, concentration-response, Hill fit; type: cell-based
T1 construct: full-length mTRPV1 cDNA in pEYFP-N3, C-terminal eYFP fusion, transiently expressed in HEK293 cells; homotetramer

mTRPV1 (mouse TRPV1) [2] = target: T2, mTRPV1 (mouse TRPV1) (Mus musculus, UniProt Q704Y3); assay: as above; type: cell-based
T2 construct: full-length mTRPV1 cDNA in pEYFP-N3, C-terminal eYFP fusion, transiently expressed in HEK293 cells; homotetramer
T2 sequence (Q704Y3 whole entry, the tested form may be a part): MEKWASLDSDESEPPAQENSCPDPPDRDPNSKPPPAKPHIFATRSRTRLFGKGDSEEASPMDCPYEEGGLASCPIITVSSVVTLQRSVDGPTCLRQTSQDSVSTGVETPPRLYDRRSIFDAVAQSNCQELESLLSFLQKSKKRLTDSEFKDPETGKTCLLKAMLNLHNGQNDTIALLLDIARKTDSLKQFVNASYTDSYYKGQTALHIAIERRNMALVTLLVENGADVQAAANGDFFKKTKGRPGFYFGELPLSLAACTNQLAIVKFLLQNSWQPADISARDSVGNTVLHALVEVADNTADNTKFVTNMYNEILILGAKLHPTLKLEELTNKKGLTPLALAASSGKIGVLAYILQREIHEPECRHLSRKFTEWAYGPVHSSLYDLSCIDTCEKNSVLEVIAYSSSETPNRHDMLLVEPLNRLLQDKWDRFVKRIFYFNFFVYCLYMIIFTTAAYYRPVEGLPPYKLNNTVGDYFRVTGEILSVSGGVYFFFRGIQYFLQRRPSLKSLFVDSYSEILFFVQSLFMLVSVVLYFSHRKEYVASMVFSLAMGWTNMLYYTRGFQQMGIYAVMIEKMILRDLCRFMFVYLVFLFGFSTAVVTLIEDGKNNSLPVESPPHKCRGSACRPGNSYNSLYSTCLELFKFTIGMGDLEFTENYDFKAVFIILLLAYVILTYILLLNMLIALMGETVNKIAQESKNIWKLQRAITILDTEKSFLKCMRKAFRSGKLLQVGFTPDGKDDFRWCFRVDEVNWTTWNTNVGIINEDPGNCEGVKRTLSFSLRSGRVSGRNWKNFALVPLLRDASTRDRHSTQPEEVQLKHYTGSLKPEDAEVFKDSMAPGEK

T1 sequence (Q704Y3 with tags, fused parts or gaps INS430GGG): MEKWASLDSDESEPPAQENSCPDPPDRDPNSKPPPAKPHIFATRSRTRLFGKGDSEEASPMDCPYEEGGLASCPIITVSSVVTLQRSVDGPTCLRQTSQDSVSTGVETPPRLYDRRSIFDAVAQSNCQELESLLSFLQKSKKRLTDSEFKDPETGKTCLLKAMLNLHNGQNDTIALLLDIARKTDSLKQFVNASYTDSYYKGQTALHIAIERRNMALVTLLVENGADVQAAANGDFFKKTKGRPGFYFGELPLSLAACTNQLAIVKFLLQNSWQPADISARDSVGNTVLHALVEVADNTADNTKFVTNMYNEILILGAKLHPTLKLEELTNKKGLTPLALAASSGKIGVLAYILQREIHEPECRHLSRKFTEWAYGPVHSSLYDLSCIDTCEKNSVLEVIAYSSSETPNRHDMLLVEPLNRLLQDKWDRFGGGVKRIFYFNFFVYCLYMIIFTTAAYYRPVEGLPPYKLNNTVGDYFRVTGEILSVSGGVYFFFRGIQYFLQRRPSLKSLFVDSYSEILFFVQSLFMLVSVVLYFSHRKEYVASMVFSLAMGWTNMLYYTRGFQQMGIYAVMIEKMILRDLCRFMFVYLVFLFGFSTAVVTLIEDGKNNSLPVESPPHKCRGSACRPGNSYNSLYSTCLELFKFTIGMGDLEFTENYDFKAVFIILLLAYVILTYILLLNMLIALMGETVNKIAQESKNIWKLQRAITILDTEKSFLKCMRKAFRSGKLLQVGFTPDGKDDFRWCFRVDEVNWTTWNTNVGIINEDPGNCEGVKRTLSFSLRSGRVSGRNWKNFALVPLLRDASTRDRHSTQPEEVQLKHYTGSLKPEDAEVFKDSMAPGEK

## COc1cc(CNC(=O)CCCC/C=C/C(C)C)ccc1O [capsaicin]
mTRPV1 (mouse TRPV1) [1]
  EC50: 70 ± 30 nM
mTRPV1 (mouse TRPV1) [2]
  EC50: 150 ± 20 nM
